Results from patent US12515032B2, “Gelatin methacryloyl-based microneedle patches for delivery of water-insoluble drugs” (THE REGENTS OF THE UNIVERSITY OF CALIFORNIA, priority 2020, dated 2026).

Legend:
[1] = Aqueous stability of curcumin in DPBS (absorbance at 430 nm); assay type: physicochemical; details: after 1 h at 37° C. incubation
Procedure: The stability of curcumin was monitored by measuring absorbance at 430 nm for both the inclusion complex and free curcumin dissolved in DPBS (DPBS diluted with ethanol). The percentage of remaining curcumin was estimated by measuring the absorbance compared to the initial absorbance over a 6 h period. […] GelMA-β-(D) and curcumin inclusion complex preparation: […] For comparison of curcumin solubility, GelMA was used as a control and the resulting solution was named as GelMA/CUR. After the equilibrium was reached, the suspension was centrifuged at 12,000 rpm for 10 min; supernatants were withdrawn and further filtered through a 0.22 μm film. The inclusion complex solutions were measured for absorbance at 430 nm to assess solubility. The prepared GelMA-β-CD/CUR solution was also used for aqueous stability study compared to free curcumin dissolved in DPBS (DPBS:ethanol as 4:1). The GelMA-β-CD/CUR solutions were freeze-dried for additional FTIR and DSC analysis.

[2] = Curcumin loading capacity / solubility in GelMA and GelMA-β-CD solution (absorbance at 430 nm); assay type: physicochemical
Procedure: Curcumin was selected as a model for water-insoluble drug or therapeutic agent 26 (FIG. 11) to test the loading efficacy of GelMA-β-CD. Aqueous drug suspension was used to compare the loading capacity relative to unmodified GelMA. […] The intermolecular interaction between CD and curcumin primarily dictated the desirable properties of water-insoluble drug 26 delivery.
GelMA-β-(D) and curcumin inclusion complex preparation: To prepare the inclusion complex, excess amount of curcumin (5 mg) was added to pre-dissolved GelMA-β-CD solution in 1 mL DPBS (20%, g/mL) and stirred at 37° C. for 30 min to form the inclusion complex solution where curcumin could be encapsulated within the cavity of CD and the resulting solution was named as GelMA-β-CD/CUR. For comparison of curcumin solubility, GelMA was used as a control and the resulting solution was named as GelMA/CUR. After the equilibrium was reached, the suspension was centrifuged at 12,000 rpm for 10 min; supernatants were withdrawn and further filtered through a 0.22 μm film. The inclusion complex solutions were measured for absorbance at 430 nm to assess solubility. The prepared GelMA-β-CD/CUR solution was also used for aqueous stability study compared to free curcumin dissolved in DPBS (DPBS:ethanol as 4:1). The GelMA-β-CD/CUR solutions were freeze-dried for additional FTIR and DSC analysis.

Row | Compound | Percentage of remaining curcumin [1] | Loading capacity (solubility) of curcumin [2]
1 | COc1cc(/C=C/C(=O)CC(=O)/C=C/c2ccc(O)c(OC)c2)ccc1O [curcumin] | approximately 45% | –
2 | gelatin methacryloyl [GelMA] | – | 84.8 ± 13.5 µg/mL
